Experiment [1] has as its system human umbilical vein endothelial cells (HUVECs) in co-culture with normal human dermal fibroblasts (NHDF). Description: in vitro angiogenesis assay, HUVEC-NHDF co-culture, CD31 immunostaining. Type of experiment: cell-based. The following applies: for inhibition of angiogenesis compared with (S)-levamisole hydrochloride (1): Figure 5, Table 1. On the procedure: The antiangiogenic effects of the compounds were determined in a previously developed assay, designed to evaluate the growth and differentiation of human umbilical vein endothelial cells (HUVECs) in co-culture with normal human dermal fibroblasts (NHDF). […] The cluster morphology known from (S)-levamisole, was also observed for tetramisole (2) (Figure 5B and Table 1), p-bromolevamisole (3) (Figure 5C and Table 1), and N-methyllevamisoles (7a, b), with the latter mentioned showing a slightly more pronounced effect (Figure 5E and F, Figure 6 A–D, Table 1). […] Compound 4 (Figure 5D and Table 1), on the other hand, inhibited the capillary network formation to give small cords exclusively, which is reminiscent of the effect of suramin (5) (Figure 5N and Table 1), another well-known angiogenesis inhibitor [44], [51].
Co-culture cell assays were performed according to a method described previously, [44]. Briefly, 10^3 NHDFs were cultured in each well of a 96-well microtiter plate in NHDF standard medium (100 μL, FGM-2 Bullet kit) at 37°C in an atmosphere containing 5% CO2. After 3 days the medium was removed and 10^3 HUVECs were seeded onto the NHDF in TFSM2 medium (135 μL). The samples of the individual compounds were prepared by weight and dissolved in a concentration of […] in DMSO, PBS, or Milli-Q water followed by pH adjustment, and sterile filtration through 0.22 μm filters. Medium, buffer controls or test samples of 15 µL were added to each well containing the HUVEC–NHDF co-culture and were incubated for 3 days. Experiments were repeated 2–4 times with identical results.
HUVEC and fibroblasts were stained with a CD31 antibody according to the method previously described, [44]. Briefly, the cells were washed with PBS, fixed with ethanol, blocked with TTN buffer, incubated with mouse anti-human CD31 diluted 1∶250 in TTN buffer, washed in TTN buffer and incubated with alkaline phosphatase-conjugated goat anti-mouse IgG diluted 1∶1000 in TTN buffer. Bound antibody was subsequently visualised with BCIP/NBT and inspected in an Olympus IX70 microscope and photographed with an Olympus DP12 digital camera (Magnification: 40x). Image analysis was carried out using the program AnalySIS (Soft Imaging Systems, Münster, Germany).

Experiment [2] addresses T1, bovine kidney tissue non-specific alkaline phosphatase (TNAP) (Bos taurus, UniProt P09487).
T1 construct: alkaline phosphatase (0.01 U/mL) from human placenta or bovine kidneys; from tissue; host or cells: bovine kidneys
T1 sequence (P09487 18-499 limits assumed): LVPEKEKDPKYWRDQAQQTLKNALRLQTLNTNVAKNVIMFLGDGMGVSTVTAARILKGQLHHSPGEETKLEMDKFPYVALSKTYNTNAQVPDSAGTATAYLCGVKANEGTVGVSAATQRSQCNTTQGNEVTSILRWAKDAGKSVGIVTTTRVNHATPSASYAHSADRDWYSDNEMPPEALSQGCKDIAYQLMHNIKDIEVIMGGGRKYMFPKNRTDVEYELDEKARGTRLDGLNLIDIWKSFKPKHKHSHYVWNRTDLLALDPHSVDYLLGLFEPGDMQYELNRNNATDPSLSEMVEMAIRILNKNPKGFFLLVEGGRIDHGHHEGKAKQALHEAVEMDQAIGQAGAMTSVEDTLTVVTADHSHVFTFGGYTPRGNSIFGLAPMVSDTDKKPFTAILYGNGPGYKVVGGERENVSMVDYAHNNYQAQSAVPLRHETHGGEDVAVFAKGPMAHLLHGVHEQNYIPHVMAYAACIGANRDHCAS
Description: Alkaline phosphatase assay (p-nitrophenyl phosphate), bovine kidney enzyme. Type of experiment: biochemical. On the procedure: (§1) The levamisole derivatives were diluted to 2.5, 5 and 10 mM in DMSO. Samples (10 µL) and 90 µL solution of alkaline phosphatase (0.01 U/mL) from human placenta or bovine kidneys diluted in substrate buffer were added to a 96-well microtiter plate and incubated for 35 minutes at room temperature. Hereafter, 100 µL p-nitrophenyl phosphate (2 mg/mL) were added, and the plate was read at 405 nm with background subtraction at 650 nm on a Versamax Elisa reader (Molecular Devices, Sunnyvale, CA, USA) after 24 and 35 min. Results were obtained as the mean of double determinations. The EC50 values were read from the curve at half maximal absorbance.

The target in experiment [3] is T2, human placenta alkaline phosphatase (HPAP) (Homo sapiens, UniProt P05187).
T2 construct: alkaline phosphatase (0.01 U/mL) from human placenta or bovine kidneys; from tissue; host or cells: human placenta
T2 sequence (P05187 23-506 limits assumed): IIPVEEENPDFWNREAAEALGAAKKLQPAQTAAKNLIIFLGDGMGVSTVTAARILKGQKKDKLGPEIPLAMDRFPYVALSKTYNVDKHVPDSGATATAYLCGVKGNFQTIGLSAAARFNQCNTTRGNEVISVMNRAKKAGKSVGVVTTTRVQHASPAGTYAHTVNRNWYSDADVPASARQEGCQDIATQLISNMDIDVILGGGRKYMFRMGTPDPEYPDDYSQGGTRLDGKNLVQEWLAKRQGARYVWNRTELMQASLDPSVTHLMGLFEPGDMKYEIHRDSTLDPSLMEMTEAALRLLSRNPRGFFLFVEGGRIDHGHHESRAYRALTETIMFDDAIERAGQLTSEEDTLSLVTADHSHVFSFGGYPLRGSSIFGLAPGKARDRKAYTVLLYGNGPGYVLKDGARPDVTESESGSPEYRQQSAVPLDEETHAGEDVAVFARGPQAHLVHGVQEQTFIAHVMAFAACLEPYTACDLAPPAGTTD
Description: Alkaline phosphatase assay (p-nitrophenyl phosphate), human placenta enzyme. The experiment is classed as biochemical. On the procedure:
as §1

For a further experiment, the target named is T3, sirtuin 1 (SIRT1) (Homo sapiens, UniProt Q96EB6).
T3 construct: purchased Biomol BML-AK555
T3 sequence (Q96EB6 whole entry): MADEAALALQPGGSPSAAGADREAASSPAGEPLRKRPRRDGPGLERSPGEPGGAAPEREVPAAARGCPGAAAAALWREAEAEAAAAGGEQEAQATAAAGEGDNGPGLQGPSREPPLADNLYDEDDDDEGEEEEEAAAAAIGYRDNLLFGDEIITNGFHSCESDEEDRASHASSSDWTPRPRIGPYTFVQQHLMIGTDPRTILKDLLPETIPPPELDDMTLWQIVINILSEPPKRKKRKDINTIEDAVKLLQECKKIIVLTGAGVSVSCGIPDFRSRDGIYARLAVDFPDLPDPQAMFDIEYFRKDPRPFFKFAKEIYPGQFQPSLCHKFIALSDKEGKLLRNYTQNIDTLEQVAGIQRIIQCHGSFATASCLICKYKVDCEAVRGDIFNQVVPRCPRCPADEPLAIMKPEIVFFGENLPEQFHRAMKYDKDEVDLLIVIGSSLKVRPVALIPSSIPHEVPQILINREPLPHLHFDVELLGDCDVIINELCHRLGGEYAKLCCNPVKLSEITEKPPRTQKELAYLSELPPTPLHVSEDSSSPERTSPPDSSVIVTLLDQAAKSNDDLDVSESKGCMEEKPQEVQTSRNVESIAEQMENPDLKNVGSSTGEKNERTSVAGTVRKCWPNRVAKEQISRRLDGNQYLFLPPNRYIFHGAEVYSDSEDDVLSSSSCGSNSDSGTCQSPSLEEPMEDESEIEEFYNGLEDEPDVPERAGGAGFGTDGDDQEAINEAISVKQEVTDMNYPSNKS
Description: SIRT1 inhibition assay (Fluor-de-Lys fluorogenic). The experiment is classed as biochemical. On the procedure:
The assay was performed according to protocols provided by the supplier (Biomol, BML-AK555). Briefly, the dose–response experiments were performed in black low binding NUNC 96-well microtiter plates. The dilution series were prepared in Milli-Q water from 100 mM DMSO stock solutions. Fluor-de-Lys SIRT1 substrate (250 μM), NAD^+ ([…]), and SIRT1 (2 U/well) were incubated in SIRT assay buffer prepared as described in the Biomol product sheets [Tris/Cl (50 mM), NaCl (137 mM), KCl (2.7 mM), MgCl2 (1 mM), pH 8.0, 1 mg/mL bovine serum albumin] in the presence or absence of the appropriate dilution of compound 7a or suramin. After 1 hour at 37°C, nicotinamide (2 mM) and developer (50 μL, 2×) were added, and the assay development was allowed to proceed for 15–30 minutes at room temperature, before the plate was read using a Tecan plate reader with excitation at 360 nm and emission at 460 nm. Two individual assays were performed in duplicate.

The mark [4] stands for this setting: 1 mM, medium control 10.2, DMSO 8.4.
[5] abbreviates: concentration not given, results not shown.

By IC50 is commonly meant the point on the concentration scale where inhibition reaches its midpoint. Read a high IC50 as weaker potency.

Counter-ions that a name gives are not always drawn.

Consider `c1ccc(C2CN3CCSC3=N2)cc1` (racemic) [Compound 2, (±)-levamisole, reference compound], for which, in experiment [1] (1 mM), the Grading result was “++ (clusters with area >4%)” and the Morphology result is given as “Clusters”. For the same compound, in experiment [1] (setting [4]), the “Area % (percent of the area covered by HUVEC as observed by CD31 staining)” value is reported as 8.0%. The “inhibition of angiogenesis compared with (S)-levamisole hydrochloride (1)” value in experiment [1] is “same effect as the enantiomerically pure parent compound”. The same compound yielded an IC50 in experiment [2] of 1 mM. Besides, in experiment [3], the midpoint of inhibition, the IC50, lay at 1.2 mM.
Consider `O=C(O)CN(CCO)CCO` [BICINE, reference compound], for which the “effect in the angiogenesis assay” value in experiment [1] (10 mM) is on record as “Neither BIS-TRIS nor BICINE showed any effects”.
The same measure, in the same setting: as for `OCCN(CCO)C(CO)(CO)CO` [BIS-TRIS, reference compound], the entry is “Neither BIS-TRIS nor BICINE showed any effects”.
As for `Brc1ccc([C@H]2CN3CCSC3=N2)cc1` [Compound 3, (–)-p-bromolevamisole oxalate, reference compound], in experiment [1] (1 mM), the Grading entry is given as “++++ (clusters with area <4%)” and the Morphology entry was “Clusters”. Besides, the “Area % (percent of the area covered by HUVEC as observed by CD31 staining)” value in experiment [1] (setting [4]) is recorded as 3.4%. Moreover, in experiment [1], the “inhibition of angiogenesis compared with (S)-levamisole hydrochloride (1)” value is “more potent than (S)-levamisole hydrochloride”. Also, in experiment [2], the IC50 is over 2 mM. Besides, the IC50 in experiment [3] came out at 0.7 mM.
For `Nc1ccc(-c2cn3c(n2)SCC3)cc1` [Compound 4, 4-(2,3-dihydroimidazo-[2,1-b]thiazol-6-yl)aniline, reference compound], in experiment [1] (1 mM), the Grading entry is given as “+++ (cords with area <4%)” and the Morphology result is given as “Cords”. The “Area % (percent of the area covered by HUVEC as observed by CD31 staining)” value in experiment [1] (setting [4]) turned out to be 2.0%. Moreover, the “inhibition of angiogenesis compared with (S)-levamisole hydrochloride (1)” value in experiment [1] is on record as “more potent than (S)-levamisole hydrochloride”.
As to `Cc1ccc(C(=O)Nc2ccc(S(=O)(=O)O)c3cc(S(=O)(=O)O)cc(S(=O)(=O)O)c23)cc1NC(=O)c1cccc(NC(=O)Nc2cccc(C(=O)Nc3cc(C(=O)Nc4ccc(S(=O)(=O)O)c5cc(S(=O)(=O)O)cc(S(=O)(=O)O)c45)ccc3C)c2)c1` [Compound 5, suramin, reference compound], on sirtuin 1 (SIRT1) (read-out: SIRT1 inhib. (1 μM)), the inhibition at 1 µM was over 90%. Besides, the “inhibition of SIRT1 deacetylase activity” value at sirtuin 1 (SIRT1) (standard fluorogenic assay in vitro) is on record as “potently inhibited SIRT1”. Also, the Morphology entry in experiment [1] (1 mM) was “Cords”. The “Area % (percent of the area covered by HUVEC as observed by CD31 staining)” value in experiment [1] (setting [4]) is listed as 2.2%. This compound returned an IC50 in experiment [2] of over 2 mM.
Regarding `C[N+]1=C2SCCN2C[C@@H]1c1ccccc1` [Compound 7b, N-methyllevamisole trifluoroacetate], the Grading result in experiment [1] (1 mM) was “++++ (clusters with area <4%)”. Also, the Morphology result in experiment [1] (1 mM) was “Clusters”. Also, in experiment [1] (setting [4]), the “Area % (percent of the area covered by HUVEC as observed by CD31 staining)” value was found to be 3.3%. Also, the “inhibition of angiogenesis compared with (S)-levamisole hydrochloride (1)” value in experiment [1] is recorded as “more potent than (S)-levamisole hydrochloride”. Besides, the IC50 in experiment [2] and in experiment [3] was over 2 mM each time. The “inhibition of tissue non-specific alkaline phosphatase” value in experiment [2] (at 2 mM or higher) is “no inhibition”.
Consider `CC[N+]1=C2SCCN2C[C@@H]1c1ccccc1` [Compound 8a, N-ethyllevamisole iodide], for which, in experiment [1] (0.7 mM), the “Area % (percent of the area covered by HUVEC as observed by CD31 staining)” value was 5.2%, the Grading result is recorded as “+” and the Morphology result is reported as “Mixed”. The same compound registered an IC50 in experiment [2] of over 2 mM. The compound also registered a half-inhibitory concentration (IC50) in experiment [3] of over 2 mM.
On to `CC[N+]1=C2SCCN2C[C@@H]1c1ccccc1` [Compound 8b, N-ethyllevamisole trifluoroacetate], for which, in experiment [1] (0.2 mM), the “Area % (percent of the area covered by HUVEC as observed by CD31 staining)” value worked out at 5.4%, the Grading result was “+” and the Morphology result is “Mixed”.
`CC(C)[N+]1=C2SCCN2C[C@@H]1c1ccccc1` [Compound 9, (S)-N-Isopropyllevamisole trifluoroacetate]: in experiment [1] (0.6 mM), the “Area % (percent of the area covered by HUVEC as observed by CD31 staining)” value turned out to be 2.6%, the Grading entry is on record as “+” and the Morphology entry is listed as “Mixed”. In experiment [2], this compound yielded an IC50 of over 2 mM. In addition, the IC50 in experiment [3] is over 2 mM.
As to `CCCC[N+]1=C2SCCN2C[C@@H]1c1ccccc1` [Compound 10, (S)-N-(n-Butyl)-levamisole trifluoroacetate], in experiment [1] (0.3 mM), the “Area % (percent of the area covered by HUVEC as observed by CD31 staining)” value amounted to 5.0%, the Grading entry is “+” and the Morphology result is given as “Mixed”.
For `c1ccc(C[N+]2=C3SCCN3C[C@@H]2c2ccccc2)cc1` [Compound 11a, N-benzyllevamisole bromide], in experiment [1] (0.7 mM), the “Area % (percent of the area covered by HUVEC as observed by CD31 staining)” value was 2.8%, the Grading result is listed as “+” and the Morphology result was “Mixed”.
Take `c1ccc(C[N+]2=C3SCCN3C[C@@H]2c2ccccc2)cc1` [Compound 11b, N-benzyllevamisole trifluoroacetate]: in experiment [1] (0.4 mM), the “Area % (percent of the area covered by HUVEC as observed by CD31 staining)” value was found to be 4.0%, the Grading result is “+” and the Morphology result is recorded as “Mixed”. In experiment [2], this compound displayed a half-maximal inhibitory concentration (IC50) of over 2 mM. Also, the IC50 in experiment [3] is over 2 mM.
In the case of `c1ccc([C@H]2CN3CCSC3=[N+]2CC2CCCCC2)cc1` [Compound 12, (S)-N-Cyclohexylmethylenelevamisole], in experiment [1] (0.1 mM), the “Area % (percent of the area covered by HUVEC as observed by CD31 staining)” value is 3.7%, the Grading entry is recorded as “+” and the Morphology entry is “Mixed”. In addition, the half-inhibitory concentration (IC50) in experiment [2] is over 2 mM. The same compound showed an IC50 in experiment [3] of over 2 mM.
For `O=S(=O)(O)CCN1CCN(CCO)CC1` [HEPES, reference compound], the “effect in the angiogenesis assay” value in experiment [1] (setting [5]) was “neither showed an effect”.
As for `Cn1ccnc1` [N-methylimidazole, reference compound], the “effect in the angiogenesis assay” value in experiment [1] (1 mM) is “no effect”; in experiment [1] (10 mM), “had an effect”.
Consider `O=C(O)CNC(CO)(CO)CO` [TRICINE, reference compound], for which the “effect in the angiogenesis assay” value in experiment [1] (setting [5]) is given as “neither showed an effect”.
For `NC(CO)(CO)CO` [TRIZMA, reference compound], the “effect in the angiogenesis assay” value in experiment [1] (setting [5]) is reported as “neither showed an effect”.

These data come from paper PMC3443238, “Synthesis and Antiangiogenic Activity of N-Alkylated Levamisole Derivatives” (PLoS ONE, 2012).
